# From ChEMBL document CHEMBL1201862, “PubChem BioAssay data set” (2004)
#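 Results reflect a 48-hour exposure of cells in 96-well plates to compound at five concentrations. Abbreviation: GI50, concentration required for 50% inhibition of growth.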 Active and inactive are the calls of the source. Cut-off read from the data, not from the text of the source: active = GI50 up to about 1.1 µM and inactive = higher.
# Experiments:
# Assay in all cases: NCI-60 cell line screen, 48 h
# 786-0 = tested on: 786-0
# SK-MEL-5 = tested on: SK-MEL-5
# U-251 = tested on: U-251
# SF-268 = tested on: SF-268
# NCI-H460 = tested on: NCI-H460
# HL-60 = tested on: HL-60
# COLO 205 = tested on: COLO 205
# LOX IMVI = tested on: LOX IMVI
# Malme-3M = tested on: Malme-3M
# A498 = tested on: A498
# CCRF-CEM = tested on: CCRF-CEM
# OVCAR-8 = tested on: OVCAR-8
# RPMI-8226 = tested on: RPMI-8226
# UO-31 = tested on: UO-31
# ACHN = tested on: ACHN
# UACC-257 = tested on: UACC-257
# HCT-116 = tested on: HCT-116
# SNB-75 = tested on: SNB-75
# MOLT-4 = tested on: MOLT-4
# M14 = tested on: M14
SMILES,GI50 (786-0),GI50 (SK-MEL-5),GI50 (U-251),GI50 (SF-268),GI50 (NCI-H460),GI50 (HL-60),GI50 (COLO 205),GI50 (LOX IMVI),GI50 (Malme-3M),GI50 (A498),GI50 (CCRF-CEM),GI50 (OVCAR-8),GI50 (RPMI-8226),GI50 (UO-31),GI50 (ACHN),GI50 (UACC-257),GI50 (HCT-116),GI50 (SNB-75),GI50 (MOLT-4),GI50 (M14)
COc1ccc2[nH]c3c4c(ccc3c2c1)C(=O)C=CC4=O,11.4 µM (inactive),18.9 µM (inactive),17.1 µM (inactive),17.1 µM (inactive),24.8 µM (inactive),0.439 µM (active),5.3 µM (inactive),9.31 µM (inactive),7.73 µM (inactive),31.3 µM (inactive),0.324 µM (active),5.22 µM (inactive),2.08 µM (inactive),14.8 µM (inactive),4.76 µM (inactive),10 µM (inactive),3.62 µM (inactive),18.8 µM (inactive),0.448 µM (active),10 µM (inactive)
NS(=O)(=O)c1ccc(NC2(C(=O)O)CCCC2)cc1,> 100 µM (inactive),> 100 µM (inactive),> 100 µM (inactive),> 100 µM (inactive),> 100 µM (inactive),> 100 µM (inactive),> 100 µM (inactive),> 100 µM (inactive),> 100 µM (inactive),> 100 µM (inactive),> 100 µM (inactive),> 100 µM (inactive),> 100 µM (inactive),> 100 µM (inactive),> 100 µM (inactive),> 100 µM (inactive),> 100 µM (inactive),> 100 µM (inactive),> 100 µM (inactive),> 100 µM (inactive)
O=C1C(c2ccccc2)=[N+]([O-])c2cc([N+](=O)[O-])ccc21,26.3 µM (inactive),19.3 µM (inactive),27.7 µM (inactive),19.7 µM (inactive),24.7 µM (inactive),7.52 µM (inactive),21.5 µM (inactive),14.3 µM (inactive),20.6 µM (inactive),27.6 µM (inactive),8.93 µM (inactive),16.4 µM (inactive),22.8 µM (inactive),52.1 µM (inactive),24.9 µM (inactive),18.5 µM (inactive),23.8 µM (inactive),41.9 µM (inactive),18.7 µM (inactive),> 10 µM (inactive)
CCN1CCC(O)(c2ccc([N+](=O)[O-])cc2)C(C(=O)c2ccc([N+](=O)[O-])cc2)C1 (stereo not given),15.5 µM (inactive),18.1 µM (inactive),29.2 µM (inactive),21 µM (inactive),28.8 µM (inactive),41.5 µM (inactive),13.8 µM (inactive),21.6 µM (inactive),20.1 µM (inactive),22 µM (inactive),11.9 µM (inactive),30.1 µM (inactive),3.33 µM (inactive),17.3 µM (inactive),17.8 µM (inactive),17.9 µM (inactive),17.2 µM (inactive),34.5 µM (inactive),19.3 µM (inactive),18.1 µM (inactive)
C/C(=N\Nc1ccccc1)C(CN(C)C)C(c1ccccc1)c1c(O)c2ccccc2oc1=O (stereo not given),> 100 µM (inactive),> 100 µM (inactive),> 100 µM (inactive),> 100 µM (inactive),> 100 µM (inactive),> 59.8 µM (inactive),> 68.9 µM (inactive),> 100 µM (inactive),> 83 µM (inactive),> 100 µM (inactive),> 83.8 µM (inactive),> 100 µM (inactive),> 66.7 µM (inactive),> 100 µM (inactive),> 100 µM (inactive),> 100 µM (inactive),> 100 µM (inactive),> 77.3 µM (inactive),42.1 µM (inactive),> 100 µM (inactive)
N#CC(c1nc2ccccc2nc1Cl)S(=O)(=O)c1ccccc1 (stereo not given),> 100 µM (inactive),> 100 µM (inactive),83.8 µM (inactive),> 100 µM (inactive),> 100 µM (inactive),> 100 µM (inactive),> 100 µM (inactive),43.5 µM (inactive),56.9 µM (inactive),> 100 µM (inactive),30.1 µM (inactive),74 µM (inactive),37.2 µM (inactive),43.8 µM (inactive),> 100 µM (inactive),> 100 µM (inactive),> 100 µM (inactive),> 100 µM (inactive),32.4 µM (inactive),> 100 µM (inactive)
CN(C)CC1(C)CC/C(=C\c2ccc(Cl)cc2)C1=O (stereo not given),59.2 µM (inactive),39 µM (inactive),40.1 µM (inactive),36.9 µM (inactive),24.4 µM (inactive),19.7 µM (inactive),17.4 µM (inactive),31.3 µM (inactive),> 100 µM (inactive),49.1 µM (inactive),25.8 µM (inactive),40.1 µM (inactive),19.1 µM (inactive),45.8 µM (inactive),44.9 µM (inactive),44.7 µM (inactive),34.3 µM (inactive),45 µM (inactive),20.5 µM (inactive),43.2 µM (inactive)
COC(=O)C(C#N)C1NC(=O)c2ccccc21 (stereo not given),> 100 µM (inactive),> 100 µM (inactive),> 100 µM (inactive),> 100 µM (inactive),> 100 µM (inactive),> 100 µM (inactive),> 100 µM (inactive),> 100 µM (inactive),> 100 µM (inactive),> 100 µM (inactive),> 100 µM (inactive),> 100 µM (inactive),> 100 µM (inactive),> 100 µM (inactive),> 100 µM (inactive),> 100 µM (inactive),> 100 µM (inactive),9.71 µM (inactive),> 100 µM (inactive),> 100 µM (inactive)
C=C1C(OC(C)=O)CC(OC(C)=O)C2(C)C(OC(C)=O)C(OC(C)=O)C3=C(C)C(OC(=O)/C=C/c4ccccc4)CC(C(OC(C)=O)C12)C3(C)C (stereo not given),30.8 µM (inactive),> 100 µM (inactive),36.2 µM (inactive),26.7 µM (inactive),> 100 µM (inactive),> 100 µM (inactive),> 100 µM (inactive),> 100 µM (inactive),59.3 µM (inactive),61.1 µM (inactive),> 100 µM (inactive),46.3 µM (inactive),> 100 µM (inactive),> 100 µM (inactive),35.5 µM (inactive),> 100 µM (inactive),> 100 µM (inactive),15.1 µM (inactive),> 100 µM (inactive),> 100 µM (inactive)
